Test results from US6855667B2, “Method for safening crops from the phytotoxic effects of herbicides by use of phosphorated esters” (priority 2000, dated 2005).

Tests used:
Format in all cases: in vivo
corn (Pioneer 3733) = experiment: Clomazone injury and dietholate safening of corn, variety Pioneer 3733; conditions: 14 days
Method: (§1) The compounds and compositions of the present invention were tested as water/surfactant solutions on two corn varieties (Pioneer 3733 and Pioneer 3876) and one variety (DPL 61) of cotton. In one embodiment, the safening compound and herbicidal compound were sprayed in admixture as a tank mix onto flats of corn or cotton seeds arranged in a randomized, block design. In another embodiment, the safening compound was applied to the plant seeds by placing the safening compound and the plant seeds in a screw-capped jar, which was rolled on its side until dispersion of the safening compound was complete. Optionally, a sticker compound, for example, without limitation, water or carboxymethylcellulose, can be used to adhere the safening compound to the plant seeds. The treated plant seeds were planted and immediately sprayed with herbicidal compound as described hereinabove. There were four replicates for each rate of application. The emerging corn and cotton plants were maintained in a growth chamber for 14 days after which time they were evaluated for percent injury as compared to an untreated control.

cotton (DPL 61) = experiment: Clomazone injury and dietholate safening of cotton, growth chamber, percent injury vs untreated control; conditions: for Percent Injury: 14 days
Method: as §1

[1] = tested on: two corn varieties (Pioneer 3733 and Pioneer 3876); experiment: Clomazone injury and dietholate safening of corn, both varieties together; conditions: clomazone without the safening compound dietholate
Method: as §1, with “control. […]” for “control.”

corn (Pioneer 3876) = experiment: Clomazone injury and dietholate safening of corn, variety Pioneer 3876; conditions: 14 days
Method: as §1

CC1(C)CON(Cc2ccccc2Cl)C1=O [Clomazone, 2-[(2-chlorophenyl)methyl]-4,4-dimethyl-3-isoxazolidinone]
Percent Injury (corn (Pioneer 3733); clomazone 0.06 kg/ha alone): 2% | Percent Injury (corn (Pioneer 3733); clomazone 0.12 kg/ha alone): 28% | Percent Injury (corn (Pioneer 3733); clomazone 0.24 kg/ha alone): 75% | Percent Injury (cotton (DPL 61); clomazone 0.25 kg/ha alone): 46% | Percent Injury (cotton (DPL 61); clomazone 0.50 kg/ha alone): 77% | Percent Injury (cotton (DPL 61); clomazone 1.0 kg/ha alone): 91% | injury to cotton (in words) (cotton (DPL 61); clomazone without the safening compound dietholate): significant injury | injury to corn (in words) [1]: significant injury | Percent Injury (corn (Pioneer 3876); clomazone 0.06 kg/ha alone): 1% | Percent Injury (corn (Pioneer 3876); clomazone 0.12 kg/ha alone): 15% | Percent Injury (corn (Pioneer 3876); clomazone 0.24 kg/ha alone): 59%
